From ChEMBL document CHEMBL4680289, “10-(4-Phenylpiperazine-1-carbonyl)acridin-9(10H)-ones and related compounds: Synthesis, antiproliferative activity and inhibition of tubulin polymerization” (Bioorg Med Chem Lett, 2021)
pIC50: −log10 of the molar value. The source made the active and inactive calls. The rule behind the calls is not given here.

Key:
[1] = Cytotoxicity against human PBMC cells assessed as cell growth inhibition measured after 72 hrs by sulforhodamine B assay; assay type: cell-based
[2] = test system: HT-1080; assay: Antiproliferative activity against human HT-1080 cells assessed as cell growth inhibition measured after 72 hrs by sulforhodamine B assay; assay type: functional
[3] = test system: 5637; assay: Antiproliferative activity against human 5637 cells assessed as cell growth inhibition measured after 72 hrs by sulforhodamine B assay; assay type: functional
[4] = test system: SK-N-AS; assay: Antiproliferative activity against human SK-N-AS cells assessed as cell growth inhibition measured after 72 hrs by sulforhodamine B assay; assay type: functional
[5] = test system: K562; assay: Cell cycle arrest in human K562 cells assessed as increase in cell accumulation at G2/M phase measured after 18 hrs by propidium iodide/RNase FACSCalibur staining based flow cytometry; assay type: functional; conditions: dose 0.003-1 µmol/L
[6] = test system: Ca-Ski; assay: Antiproliferative activity against human Ca-Ski cells assessed as cell growth inhibition measured after 72 hrs by sulforhodamine B assay; assay type: functional
[7] = test system: K562; assay: Cell cycle arrest in human K562 cells assessed as increase in cell accumulation at G2/M phase at < 30 nM measured after 18 hrs by propidium iodide/RNase FACSCalibur staining based flow cytometry; assay type: functional; conditions: dose nM <30, time 18.0 hrs
[8] = test system: K562; assay: Antiproliferative activity against human K562 cells assessed as cell growth inhibition measured after 48 hrs by MTT assay; assay type: functional, cell-based; conditions: K562, 48 h
[9] = molecular target: T1, Tubulin beta (Homo sapiens) (UniProt P68371+Q9H4B7+Q13509+P04350+Q3ZCM7+P07437+Q13885+Q9BVA1+Q9BUF5+A6NNZ2); assay: Inhibition of N,N'-Ethylenebis(iodoacetamide) binding to beta-tubulin colchicine binding site in human K562 cells assessed as reduction in EBI/beta-tubulin adduct formation at 1 to 10 uM preincubated for 2.5 hrs followed by EBI addition and measured after 1.5 hrs by Western blot analysis; assay type: cell-based; conditions: dose 1-10 µM, time 4.0 hrs
[10] = test system: L-363; assay: Antiproliferative activity against human L-363 cells assessed as cell growth inhibition measured after 72 hrs by sulforhodamine B assay; assay type: functional
[11] = Antiproliferative activity against human RDES cells assessed as cell growth inhibition measured after 72 hrs by sulforhodamine B assay; assay type: functional; conditions: RD-ES
[12] = test system: MG-63; assay: Antiproliferative activity against human MG-63 cells assessed as cell growth inhibition measured after 72 hrs by sulforhodamine B assay; assay type: functional
[13] = test system: BXPC-3; assay: Antiproliferative activity against human BXPC-3 cells assessed as cell growth inhibition measured after 72 hrs by sulforhodamine B assay; assay type: functional
[14] = test system: PANC-1; assay: Antiproliferative activity against human PANC-1 cells assessed as cell growth inhibition measured after 72 hrs by sulforhodamine B assay; assay type: functional
[15] = Cytotoxicity against human IMR-90 cells assessed as cell growth inhibition measured after 72 hrs by sulforhodamine B assay; assay type: cell-based
[16] = test system: Ramos; assay: Antiproliferative activity against human Ramos cells assessed as cell growth inhibition measured after 72 hrs by sulforhodamine B assay; assay type: functional
[17] = Inhibition of porcine brain tubulin polymerization assessed as reduction in tubulin assembly at 37 degreeC measured after 40 mins in presence of GTP by turbidimetric analysis; set-up: species or system Sus scrofa
[18] = test system: HT-29; assay: Antiproliferative activity against human HT-29 cells assessed as cell growth inhibition measured after 72 hrs by sulforhodamine B assay; assay type: functional
[19] = test system: DU-145; assay: Antiproliferative activity against human DU-145 cells assessed as cell growth inhibition measured after 72 hrs by sulforhodamine B assay; assay type: functional
[20] = test system: SNB-75; assay: Antiproliferative activity against human SNB-75 cells assessed as cell growth inhibition measured after 72 hrs by sulforhodamine B assay; assay type: functional
[21] = test system: MV4-11; assay: Antiproliferative activity against human MV4-11 cells assessed as cell growth inhibition measured after 72 hrs by sulforhodamine B assay; assay type: functional
[22] = test system: NCI-H460; assay: Antiproliferative activity against human NCI-H460 cells assessed as cell growth inhibition measured after 72 hrs by sulforhodamine B assay; assay type: functional
[23] = test system: K562; assay: Induction of apoptosis in human K562 cells at 30 nM measured after 48 hrs by Annexin V-FITC/7-AAD staining based flow cytometric analysis; assay type: functional, cell-based
[24] = test system: K562; assay: Induction of apoptosis in human K562 cells at 3 uM measured after 48 hrs by Annexin V-FITC/7-AAD staining based flow cytometric analysis; assay type: functional, cell-based
[25] = molecular target: T1, Tubulin beta (Homo sapiens); assay: Inhibition of N,N'-Ethylenebis(iodoacetamide) binding to beta-tubulin colchicine binding site in human K562 cells assessed as reduction in EBI/beta-tubulin adduct formation preincubated for 2.5 hrs followed by EBI addition and measured after 1.5 hrs by Western blot analysis relative to control; assay type: cell-based; conditions: time 4.0 hrs, concentration not given here

| SMILES | pIC50 [8] | pIC50 [17] | also measured |
| --- | --- | --- | --- |
| COc1cccc(N2CCN(C(=O)n3c4ccccc4c(=O)c4ccccc43)CC2)c1 | 7.59 | 6.48 | GI50 at 72 h [1]: > 10000 nM; GI50 [2]: 2.1 nM; GI50 [3]: 2.1 nM; GI50 [4]: 1.3 nM; Activity [5]: Dose-dependent effect; GI50 [6]: 12.3 nM; Activity [7]: Active; inhibition [9]: Active; GI50 [10]: 14.8 nM; GI50 [11]: 29.8 nM; GI50 [12]: 2 nM; GI50 [13]: 1.9 nM; GI50 [14]: 2.1 nM; GI50 at 72 h [15]: 1.4 nM; GI50 [16]: 18 nM; GI50 [18]: 2.1 nM; GI50 [19]: 17.9 nM; GI50 [20]: 12.4 nM; GI50 [21]: 13.5 nM; GI50 [22]: 13.2 nM |
| COc1cc2c(c(OC)c1OC)-c1ccc(OC)c(=O)cc1[C@@H](NC(C)=O)CC2 [COLCHICINE] | 7.89 | – | Activity [23]: Active |
| COc1ccccc1N1CCN(C(=O)n2c3ccccc3c(=O)c3cnccc32)CC1 | 6.17 | 5.41 | – |
| COc1ccc2c(c1)c(=O)c1ccccc1n2C(=O)N1CCN(c2ccccc2OC)CC1 | 5.96 | 5.46 | – |
| Nc1cccc(N2CCN(C(=O)n3c4ccccc4c(=O)c4ccccc43)CC2)c1 | 6.05 | 5.89 | – |
| O=C(N1CCN(c2cccc(F)c2)CC1)n1c2ccccc2c(=O)c2ccccc21 | 7.05 | 6.15 | – |
| O=C(N1CCN(c2cccc(Br)c2)CC1)n1c2ccccc2c(=O)c2ccccc21 | 7.41 | 6.16 | – |
| O=C(N1CCN(c2ccccc2)CC1)n1c2ccccc2c(=O)c2ccccc21 | 6.41 | 6.05 | – |
| O=C(N1CCN(c2cccc(Cl)c2)CC1)n1c2ccccc2c(=O)c2ccccc21 | 7.42 | 6.22 | – |
| Nc1ccc(N2CCN(C(=O)n3c4ccccc4c(=O)c4ccccc43)CC2)cc1 | < 5.00 | < 5.00 | – |
| COc1ccc(C(=O)n2c3ccccc3c(=O)c3cc(C#N)ccc32)cc1 | 5.89 | 5.77 | – |
| COc1ccc(C(=O)n2c3ccccc3c(=O)c3ccccc32)cc1O | 5.89 | 6.17 | – |
| O=C(N1CCN(c2cccc([N+](=O)[O-])c2)CC1)n1c2ccccc2c(=O)c2ccccc21 | 6.70 | 6.25 | – |
| O=C(c1ccccc1)n1c2ccccc2c(=O)c2ccccc21 | < 5.00 | < 5.00 | – |
| COc1ccc(C(=O)n2c3ccccc3c(=O)c3ccccc32)cc1OCc1ccccc1 | < 5.00 | < 5.00 | – |
| COc1cccc(N2CCN(C(=O)n3c4ccccc4c(=O)c4cc(OC)ccc43)CC2)c1 | 6.48 | 6.09 | – |
| COc1ccccc1N1CCN(C(=O)n2c3ccccc3c(=O)c3cc(C#N)ccc32)CC1 | 6.08 | 5.47 | – |
| O=C(N1CCN(c2ccc(Cl)cc2)CC1)n1c2ccccc2c(=O)c2ccccc21 | 5.21 | < 5.00 | – |
| COc1ccc(C(=O)n2c3ccccc3c(=O)c3cc(OC)ccc32)cc1 | 5.41 | 5.85 | – |
| COc1ccc(N2CCN(C(=O)n3c4ccccc4c(=O)c4ccccc43)CC2)cc1 | < 5.00 | < 5.00 | – |
| COc1ccc(C(=O)n2c3ccccc3c(=O)c3ccccc32)cc1OC | < 5.00 | < 5.00 | – |
| O=C(N1CCN(c2cccnc2)CC1)n1c2ccccc2c(=O)c2ccccc21 | 6.21 | 5.54 | – |

| SMILES | pIC50 [8] | pIC50 [17] | also measured |
| --- | --- | --- | --- |
| COc1ccccc1N1CCN(C(=O)n2c3ccccc3c(=O)c3cc([N+](=O)[O-])ccc32)CC1 | < 5.00 | < 5.00 | – |
| COc1ccc(C(=O)n2c3ccccc3c(=O)c3ccccc32)cc1 | 5.89 | 5.80 | Activity [5]: Dose-dependent effect; Activity [24]: Active; inhibition [25]: 100% |
| COc1cccc(N2CCN(C(=O)n3c4ccc(C#N)cc4c(=O)c4cc(OC)ccc43)CC2)c1 | < 5.00 | < 5.00 | – |
| CC[C@]1(O)C[C@H]2CN(CCc3c([nH]c4ccccc34)[C@@](C(=O)OC)(c3cc4c(cc3OC)N(C)[C@H]3[C@@](O)(C(=O)OC)[C@H](OC(C)=O)[C@]5(CC)C=CCN6CC[C@]43[C@@H]65)C2)C1 | 7.92 | 6.89 | – |
| COc1ccccc1C(=O)n1c2ccccc2c(=O)c2ccccc21 | 5.41 | 5.26 | – |
| COc1ccc(N2CCN(C(=O)n3c4ccccc4c(=O)c4ccccc43)CC2)c(OC)c1 | 5.52 | 5.33 | – |
| COc1cccc(N2CCN(C(=O)n3c4ccccc4c(=O)c4cc(N)ccc43)CC2)c1 | 6.36 | 5.90 | – |
| O=C(N1CCN(c2ccccc2Cl)CC1)n1c2ccccc2c(=O)c2ccccc21 | 5.32 | 5.15 | – |
| O=C(N1CCN(c2ccc([N+](=O)[O-])cc2)CC1)n1c2ccccc2c(=O)c2ccccc21 | < 5.00 | < 5.00 | – |
| N#Cc1cccc(N2CCN(C(=O)n3c4ccccc4c(=O)c4ccccc43)CC2)c1 | 7.35 | 6.28 | – |
| COc1cccc(N2CCN(C(=O)n3c4ccccc4c(=O)c4cccnc43)CC2)c1 | 7.49 | 6.35 | – |
| COc1cc(N2CCN(C(=O)n3c4ccccc4c(=O)c4ccccc43)CC2)cc(OC)c1OC | < 5.00 | < 5.00 | – |
| COc1cccc(N2CCN(C(=O)n3c4ccccc4c(=O)c4cnccc43)CC2)c1 | 6.64 | 6.14 | – |
| COc1cccc(N2CCN(C(=O)n3c4ccccc4c(=O)c4cc([N+](=O)[O-])ccc43)CC2)c1 | < 5.00 | 5.38 | – |
| COc1ccccc1N1CCN(C(=O)n2c3ccccc3c(=O)c3cccnc32)CC1 | 6.72 | 5.87 | – |
| COC(=O)Nc1nc2cc(C(=O)c3cccs3)ccc2[nH]1 [NOCODAZOLE] | 6.66 | 6.12 | – |
| COc1ccccc1N1CCN(C(=O)n2c3ccccc3c(=O)c3cc(N)ccc32)CC1 | 5.89 | 5.51 | – |
| COc1cccc(N2CCN(C(=O)n3c4ccccc4c(=O)c4cc(C#N)ccc43)CC2)c1 | 6.72 | – | – |
| COc1cccc(C(=O)n2c3ccccc3c(=O)c3ccccc32)c1 | < 5.00 | < 5.00 | – |
| COc1ccccc1N1CCN(C(=O)n2c3ccccc3c(=O)c3ccccc32)CC1 | 7.26 | 6.28 | – |
| COc1ccc2c(c1)c(=O)c1cc(C#N)ccc1n2C(=O)N1CCN(c2ccccc2OC)CC1 | < 5.00 | < 5.00 | – |
| COc1ccc(OC)c(N2CCN(C(=O)n3c4ccccc4c(=O)c4ccccc43)CC2)c1 | 7.22 | 6.36 | – |
